Measurements published in US20190336460A1, “C[…] ACID OR PHARMACEUTICALLY ACCEPTABLE SALT THEREOF AS ACTIVE INGREDIENT FOR PREVENTING OR TREATING OBESITY OR METABOLIC SYNDROMES CAUSED BY OBESITY” (KOREA FOOD RESEARCH INSTITUTE, priority 2016, published 2019).
Several values for one entry are separate records, joined by “and”; a condition that tells them apart may be missing. Equal entries are not always repeated.

Legend:
[1] = test system: high-fat diet-induced obesity experimental animals (C57BL/6J mice); test: Blood analysis: serum lipid concentrations in high-fat diet-induced obesity mice; type: in vivo, mouse; settings: for serum Cholesterol / serum HDL / serum LDL / serum Triglyceride / content of cholesterol, reduction compared with the high-fat diet control group / serum triglyceride, lower value compared with the high-fat diet control group: C57BL/6J mice, high-fat diet 13 weeks, 10 mmol; for serum Cholesterol / serum HDL / serum LDL / serum Triglyceride: oral once a day, 12 h fasted, mean ± S.D.; for content of cholesterol, reduction compared with the high-fat diet control group / serum triglyceride, lower value compared with the high-fat diet control group: oral; for LDL-cholesterol content compared with the high-fat diet control group (in words): mouse, in vivo
Protocol: (§1) In the present experiment, five-week-old C57BL/6J mice were purchased from Saeron Bio (Uiwang, Korea), and acclimated for 1 week before use in the experiment. The rearing room was controlled to have a temperature of 20±2° C., a humidity of 55±10%, and a light/darkness cycle of 12 hours during the experimental period. The experimental animals were divided into 6 groups according to the randomized block design, after 1-week of normal diet. The experimental groups were classified into Group A (normal diet group; n=10), Group B (high-fat diet control group; n=10), Group C (high-fat diet+sodium formate 10 mmol; n=9), Group D (high-fat diet+sodium butyrate 10 mmol; n=9), Group E (high-fat diet+sodium propionate 10 mmol; n=8), and Group F (high-fat diet+sodium acetate 10 mmol; n=4).
(§2) Water and feed were freely accessible. Groups A and B were orally administered with physiological saline, and the other groups were orally administered with corresponding organic acids once a day (2 μg/g bodyweight). For the test groups, obesity was induced by a high-fat diet for 13 weeks, and a high-fat diet (D12492; 60% of the calories) purchased from Research Diet (USA) was used in the experiment.
(§3) The body weights of the experimental animals were measured at a fixed time once a week during the experiment. The experimental animals were fasted for 12 hours before sacrifice, and blood was collected from eyes of the experimental animals anesthetized with ether. In order to prevent the coagulation of the blood after collection, the blood was placed in anti-coagulation tubes and left in an ice bath for 20 min. The collected blood samples were centrifuged at 3000 rpm for 10 min to separate serum therefrom, and refrigerated until use in the experiment. Thereafter, the kit through an enzymatic method was purchased from Young Dong Diagnostics (Yong-In, Korea) to measure the levels of blood lipids (triglyceride, cholesterol, HDL-Cholesterol, and LDL-Cholesterol). The organs were extracted, washed with physiological saline, dehydrated with a filter bed, and then weighed.

[2] = test system: high-fat diet-induced obesity experimental animals (C57BL/6J mice); test: Body weight change in high-fat diet-induced obesity mice orally given organic acid salts; type: in vivo, mouse; settings: for average body weight after 13 weeks of rearing / reduction in body weight gain compared with the high-fat diet control group: C57BL/6J mice, high-fat diet 13 weeks, oral once a day; for average body weight after 13 weeks of rearing: 10 mmol (2 μg/g bodyweight); for reduction in body weight gain compared with the high-fat diet control group: 10 mmol
Protocol: as §1, §2, §3
The high-fat diet-induced obesity experimental animals (C57BL/6J mice) were orally administered with each 10 mmol corresponding organic acid for 13 weeks, and the weights of the mice were measured once a week during the rearing.

[3] = test system: high-fat diet-induced obesity experimental animals (C57BL/6J mice); test: Organ weights (fat tissues, prostate, liver, spleen) in high-fat diet-induced obesity mice; type: in vivo, mouse; settings: high-fat diet 13 weeks, 10 mmol; for Brown fat weight / Epididymal fat weight / Kidney fat weight / Subcutaneous fat weight: oral once a day, mean ± S.D.
Protocol: as §1, §2, §3
The kidney fat, epididymal fat, subcutaneous fat, brown fat, prostate, liver, and spleen were extracted immediately after blood collection from the control and experimental groups, and washed with physiological saline, subjected to surface moisture removal, and then weighed.

[4] = test system: epididymal fat cells; test: Size measurement of epididymal fat cells (H&E staining, Image J); type: in vivo, mouse; settings: C57BL/6J mice, high-fat diet 13 weeks, oral, 10 mmol; compared among groups and with high-fat diet control group
Protocol: as §1, §2
The immobilized tissue was sliced into 18 μm using a cryostat microtome, and fat cells were stained by hematoxylin and eosin (H&E) fat staining. The fat cells were decolorized using 60% isopropanol after the staining, and then imaged using a digital camera under a microscope. For size analysis of fat cells, the area of fat cells was measured using Image J Software (National Institute of Health, Maryland, USA).

[5] = administered orally; cited from earlier work
[6] = oral, no significant difference

SMILES | serum Cholesterol [1] | serum HDL [1] | serum LDL [1] | serum Triglyceride [1] | content of cholesterol, reduction compared with the high-fat diet control group [1] [%] | average body weight after 13 weeks of rearing [2] [g] | Brown fat weight [3] | Epididymal fat weight [3] | Kidney fat weight [3] | Subcutaneous fat weight [3] | weight of epididymal fat, lower value compared with the high-fat diet control group ([3]; oral) [%] | epididymal fat cell size (in words) [4] | LDL-cholesterol content compared with the high-fat diet control group (in words) [1] | reduction in body weight gain compared with the high-fat diet control group [2] [%] | weight of subcutaneous fat, lower value compared with the high-fat diet control group ([3]; oral) [%] | serum triglyceride, lower value compared with the high-fat diet control group [1] [%] | further results
CC(=O)[O-].[Na+] [acetate, sodium acetate] | 114.86 ± 3.76^A mg/dl | 61.09 ± 2.21^A mg/dl | 32.34 ± 1.44^A mg/dl | 155.21±5.43 mg/dl and 155.21 ± 5.43^A mg/dl | 7.8 | 41.08 | 0.11 ± 0.03^A g | 2.31 ± 0.45^AB g | 0.66 g and 0.81 ± 0.07^BAB g | 1.74 ± 0.31^A g | 7.6 | smaller in that order of butyrate, propionate, formate, and acetate | – | – | – | – | serum triglyceride compared with the high-fat diet control group (in words) ([1]; p<0.05): significantly higher value; body weight compared with the high-fat diet control group (in words) ([2]; after 13 weeks, p<0.05): no significant difference; weight of brown fat, higher value compared with the high-fat diet control group [3, 6]: 22.22%; weight of subcutaneous fat, higher value compared with the high-fat diet control group [3, 6]: 10.13%
CCCC(=O)[O-].[Na+] [butyrate, sodium butyrate] | 95.63 ± 3.87^B mg/dl | 55.99 ± 0.43^B mg/dl | 24.95 ± 1.23^D mg/dl | 128.01±14.72 mg/dl and 128.01 ± 14.72^B mg/dl | – | 31.25 | 0.09 ± 0.04^A g | 2.00 ± 0.29^B g | 0.71 ± 0.12^BC g | 1.16 g and 1.16 ± 0.25^B g | 20 | smaller in that order of butyrate, propionate, formate, and acetate | lower values | 15.6 | 26.58 | – | –
O=C[O-].[Na+] [formate, sodium formate] | 79.00 ± 2.81^C mg/dl | 41.51 ± 3.56^D mg/dl | 26.24 ± 0.29^CD mg/dl | 99.48±14.18 mg/dl and 99.48 ± 14.18^C mg/dl | 36.6 | 36.78 | 0.09 ± 0.03^A g | 2.01 ± 0.24^B g | 0.72 g and 0.72 ± 0.08^BC g | 1.08 g and 1.08 ± 0.21^B g | 19.6 | smaller in that order of butyrate, propionate, formate, and acetate | lower values | 10.4 | 31.16 | 23.54 | oral amount causing no side effect in the human body [5]: up to 10 g
CCC(=O)[O-].[Na+] [propionate, sodium propionate] | 95.63 ± 5.41^B mg/dl | 50.12 ± 1.69^C mg/dl | 30.41 ± 0.51^B mg/dl | 120.68±10.07 mg/dl and 120.68 ± 10.07^B mg/dl | – | 30.05 | 0.09 ± 0.02^A g | 1.91 ± 0.44^B g | 0.71 g and 0.66 ± 0.09^C g | 1.07 g and 1.07 ± 0.24^B g | 23.6 | smaller in that order of butyrate, propionate, formate, and acetate | – | 18.3 | 32.27 | 7.2 | –
